Laboratory results published in PMC10354432, “Preparation of caffeic acid grafted chitosan self-assembled micelles to enhance oral bioavailability and antibacterial activity of quercetin” (Frontiers in Veterinary Science, 2023).

Key:
[1] = Particle size and morphology by transmission electron microscopy; type: physicochemical
Source text: We evaluated the successful preparation of CA-g-CS by UV absorption and IR detection of CS, CA, and CA-g-CS and compared the solubility of CS as well as CA-g-CS in water. The morphology of CA-g-CS/QR and QR was characterized by transmission electron microscopy. CA-g-CS/QR and QR were dropped on clean copper grids, negatively stained with 2% phosphotungstic acid solution, and the water was evaporated in the air at room temperature. The samples were dried and placed under transmission electron microscopy to observe the morphology.

[2] = Stability of QR in white broiler plasma; type: in vitro ADME
Protocol: Precision and accuracy were assessed by running the standards (n = 6) for 1 day and three consecutive days for three levels of concentration (10.0, 100.0, and 500.0 ng/ml) at low, medium, and high. The stability of QR in the samples was also investigated by sampling and analyzing the three levels of spiked plasma at −20°C for 1 week and 4°C for 24 h.

[3] = In vivo pharmacokinetics in white-finned broiler chickens; conditions: Chinese white-finned broiler, po, i.g., 36 mg/kg
Source text: The experimental procedures were reviewed and approved by the Institutional Animal Care and Use Committee of Hebei Agricultural University and carried out in accordance with the Guidelines for the Care and Use of Laboratory Animals of China. In this study, 12 healthy 30 days old Chinese white-finned broilers were used for the trial. All broilers were reared from 1 day of age and were provided with adequate basal diets and water, which were formulated to meet or exceed the nutritional requirements of broilers. Room temperature was maintained at 35°C for the first 3 days, then decreased to 28–30°C for the next 2 weeks and 25°C for the rest of the period. Broilers were randomly divided into two treatment groups (six broilers per treatment, n = 6) before the experiment, fasted for 18 h, and watered ad libitum. The experiment was administered by instillation, and blood was collected under the wings during the experiment according to the time designed for the experiment, and the plasma was centrifuged and separated for storage in a refrigerator at −20°C for processing and analysis. At the end of the experiment, broilers were euthanized.
The Waters Acquity UPLC H-Class system (Waters, Milford, MA, USA) includes a four-stage solvent manager, an autosampler set at 4°C and a Waters Acquity UPLC Shield RP18 column (100 × 2.1 mm, 1.7 μm, Waters. Milford, MA, USA). The mobile phase was methanol-0.1% phosphate (72:28, v/v). Detection was performed by a photodiode array detector at 373 nm at a flow rate of 0.2 mL/min. This assay was developed for the determination of QR in blood plasma.
A 200μL aliquot of plasma was sequentially added 20μL of 40μg/mL kaempferol internal standard, 100 μL of 25% HCL and 2 mL of ethyl acetate vortexed for 2 min equally. This mixture was centrifuged at 5000 rpm for 10 min, and the supernatant was transferred into a centrifuge tube and then concentrated to dryness under nitrogen. The analytes were dissolved in 200 μL of methanol/0.1% phosphoric acid water (4:1, v/v).
White-finned broilers were randomly divided into two experimental groups, one for the QR solution group and the other for the CA-g-CS/QR group, with six replicates in each group. The CA-g-CS/QR solution and the original QR solution were prepared and administered to the chickens at a dose of 36 mg/kg, and blood was collected under the wings at 15, 30, 60, 120, 240, 360, 480, 720, 1440, and 2160 min after the administration, placed in sodium heparin anticoagulation tubes and centrifuged to separate the plasma.
Pharmacokinetic parameters were estimated by blood concentration-time curves from Phoenix WinNonlin software. The […] was used to calculate the terminal elimination half-life (t1/2, λz), the area under the blood concentration-time curve (AUC0 − t), terminal feed time (AUC0−∞), total clearance (CL), and volume of distribution (Vd, λz). The peak blood concentration (Cmax) and time to peak (Tmax) were read directly from the observed individual blood concentration-time data. For instillation administration, the relative bioavailability (F) was calculated using the AUC0−∞ of CA-g-CS/QR versus QR.

[4] = system: Escherichia coli CMCC44102; assay: MIC and MBC, micro broth twofold dilution; type: cell-based
Protocol: (§1) We selected Escherichia coli CMCC44102 and Escherichia coli of chicken origin as experimental strains to determine their Minimum Inhibitory Concentration (MIC) and Minimum Bactericidal Concentration (MBC). The culture medium was configured and autoclaved, and the bacteria were cultured. The bacterial broth of the logarithmic growth period was diluted by micro broth twofold dilution method, 100 μL broth was added to each well of a sterile 96-well plate, and then 100 μL of prepared drug solution was added to the first well respectively, mixed well, and then diluted in multiples until the last well was mixed and 100 μL of the mixture was discarded. Each well was added with 100 μL of the prepared bacterial diluent, and a positive control (with bacteria and no drug) and a negative control (without bacteria and no drug) were set up. […] The tritriazolium chloride (TTC) method was used to determine the MIC results. 5 g/L TTC was added to each well of the 96-well plate after incubation for 1 h at 37°C, and the MIC was determined as the lowest antibacterial drug concentration in the wells with bacterial growth and the wells without bacterial growth. 100 μL of the liquid from each well clarified in the above test group was spread on solid, and the lowest drug concentration for no colony growth was its MBC. Agar plate experiments were also performed using the Oxford cup method, using CA-g-CS/QR with QR aqueous solution and maintaining the same concentration, sterile water group and CA-g-CS group were set, and three parallel experiments were performed to further confirm the antibacterial activity of the compounds.

[5] = system: Escherichia coli of chicken origin; assay: MIC and MBC, micro broth twofold dilution; type: cell-based
Protocol: as §1

[6] = rats; cited from earlier work
[7] = no colony growth on solid medium

O=c1c(O)c(-c2ccc(O)c(O)c2)oc2cc(O)cc(O)c12 [QR, Quercetin]
particle size [1]: 1.5 ± 0.1 μm
remaining at 24 h, 10 ng/mL ([2]; prepared plasma sample, 10 ng/mL, read-out: Remaining (%) in prepared plasma sample stored at 4°C for 24h): 92.8 ± 2.94%
remaining at 24 h, 100 ng/mL ([2]; prepared plasma sample, 100 ng/mL, read-out: Remaining (%) in prepared plasma sample stored at 4°C for 24h): 97.2 ± 5.63%
remaining at 24 h, 500 ng/mL ([2]; prepared plasma sample, 500 ng/mL, read-out: Remaining (%) in prepared plasma sample stored at 4°C for 24h): 99.98 ± 0.45%
remaining at 168 h, 10 ng/mL ([2]; spiked plasma, 10 ng/mL, read-out: Remaining (%) in plasma stored at −20°C for 7 days): 96.6 ± 6.62%
remaining at 168 h, 100 ng/mL ([2]; spiked plasma, 100 ng/mL, read-out: Remaining (%) in plasma stored at −20°C for 7 days): 103 ± 8.97%
remaining at 168 h, 500 ng/mL ([2]; spiked plasma, 500 ng/mL, read-out: Remaining (%) in plasma stored at −20°C for 7 days): 93.5 ± 1.78%
AUC(0-inf) ([3]; n = 6): 2.84 µg·h/mL
AUC(0-t) ([3]; n = 6): 2.76 µg·h/mL
CL/F ([3]; n = 6): 13.1 ± 2.65 L/h/kg
Cmax ([3]; n = 6): 0.278 ± 0.0185 µg/mL
Tmax ([3]; n = 6): 2 h
half-life ([3]; n = 6, read-out: T1/2, λz): 6.98 ± 0.704 h
Vd/F ([3]; n = 6, read-out: Vd, λz/F): 132 ± 25.5 L/kg
MIC ([4]; 24 h at 37°C, TTC method): 0.013 mol/L
MBC [4, 7]: 0.026 mol/L
MIC ([5]; 24 h at 37°C, TTC method): 0.0585 mol/L
MBC [5, 7]: 0.117 mol/L
oral bioavailability [6]: < 17%
